Reference: the NIST ThermoML archive (doi:10.1016/j.fluid.2009.08.023)
Several values for one entry are separate records, joined by “and”; a condition that tells them apart may be missing. Equal values may be shown once.

Conditions: Liquid, Closed cell (Static) method

FC(F)(F)CC(F)(F)F [1,1,1,3,3,3-hexafluoropropane]
Conditions | vapor or sublimation pressure
239.02 K | 20.71 kPa
240.1 K | 21.95 kPa
242.86 K | 25.66 kPa
243.17 K | 26.02 kPa
243.26 K | 26.19 kPa
244.9 K | 28.6 kPa
247.01 K | 31.96 kPa
249.11 K | 35.66 kPa
249.3 K | 35.98 kPa
251.19 K | 39.62 kPa
253.11 K | 43.66 kPa
253.18 K | 43.74 kPa
253.29 K | 43.96 kPa
253.33 K | 44.11 kPa
255.21 K | 48.33 kPa
257.22 K | 53.21 kPa
259.25 K | 58.54 kPa
261.09 K | 63.74 kPa
262.94 K | 69.34 kPa
263.1 K | 69.79 kPa
263.2 K | 70.19 kPa
264.08 K | 72.93 kPa
264.88 K | 75.59 kPa
266.95 K | 82.8 kPa
269.03 K | 90.55 kPa
271.1 K | 98.85 kPa
273.22 K | 107.93 kPa
273.31 K | 108.24 kPa
273.32 K | 108.34 kPa
273.4 K | 108.71 kPa
275.23 K | 117.09 kPa
277.32 K | 127.3 kPa
279.29 K | 137.56 kPa
280.96 K | 146.78 kPa
283.24 K | 160.12 kPa
283.27 K | 160.26 kPa
285.26 K | 172.59 kPa
287.23 K | 185.57 kPa
289.23 K | 199.5 kPa
291.2 K | 214 kPa
293.16 K | 229.27 kPa
293.29 K | 230.28 kPa
294.32 K | 238.65 kPa
295.26 K | 246.45 kPa
297.25 K | 263.72 kPa
299.35 K | 282.86 kPa
301.4 K | 302.67 kPa
303.06 K | 319.32 kPa
303.24 K | 321.23 kPa
303.3 K | 321.84 kPa
303.55 K | 324.31 kPa
305.21 K | 342.11 kPa
306.13 K | 352.04 kPa
307.21 K | 364.17 kPa
307.88 K | 372.01 kPa
308.18 K | 375.53 kPa
308.2 K | 375.7 kPa
309.52 K | 391.11 kPa
311.21 K | 412.03 kPa
311.29 K | 412.84 kPa
312.22 K | 424.67 kPa
313.16 K | 436.99 kPa
313.29 K | 438.48 kPa
313.85 K | 445.61 kPa
315.31 K | 465.57 kPa
317.16 K | 491.51 kPa
319.27 K | 522.37 kPa
320.93 K | 547.63 kPa
321.21 K | 552.1 kPa
323.44 K | 587.43 kPa
325.87 K | 628.19 kPa and 628.25 kPa
327.21 K | 651.86 kPa
328.24 K | 669.95 kPa
329.19 K | 687.47 kPa
330.27 K | 707.58 kPa
330.43 K | 710.54 kPa
330.87 K | 718.92 kPa
332.2 K | 744.56 kPa
332.59 K | 752.25 kPa
335.42 K | 809.53 kPa
337.41 K | 851.82 kPa
337.88 K | 862 kPa
339.87 K | 906.21 kPa
341.92 K | 953.67 kPa
343.98 K | 1002.9 kPa
345.61 K | 1043.5 kPa
346.25 K | 1059.7 kPa
348.23 K | 1111.2 kPa
350.37 K | 1168.7 kPa
352.05 K | 1215.7 kPa
352.45 K | 1226.9 kPa
353.22 K | 1249.3 kPa
355.64 K | 1320.5 kPa
356.7 K | 1352.6 kPa
359.21 K | 1431.4 kPa
361.34 K | 1500.8 kPa
363.46 K | 1572.3 kPa
365.6 K | 1647.1 kPa
367.45 K | 1714.4 kPa
369.49 K | 1790.5 kPa
371.35 K | 1862.2 kPa
372.12 K | 1892.8 kPa
373.44 K | 1945.6 kPa
373.47 K | 1946.8 kPa
374.62 K | 1994.1 kPa
375.47 K | 2029.4 kPa
377.6 K | 2120.2 kPa
378.14 K | 2144.1 kPa
379.74 K | 2214.5 kPa
381.83 K | 2310.2 kPa
383.87 K | 2406.7 kPa
385.8 K | 2500.8 kPa
387.8 K | 2601.6 kPa
390.19 K | 2726.9 kPa
392.05 K | 2828.1 kPa
393.47 K | 2907.6 kPa
393.73 K | 2922.2 kPa
394.04 K | 2940 kPa
396.05 K | 3057 kPa
396.52 K | 3085.8 kPa
397.97 K | 3174.2 kPa
